Measurements as given in patent US8552253B2, “Screening of drug for attention deficit hyperactive disorder by using GIT1 knock-out mice as a novel ADHD mouse model” (Korea Advanced Institute of Science and Technology, priority 2011, dated 2013).

Legend:
Format in all cases: in vivo
GIT1 knock-out mouse [1] = test: Open field test of GIT1 knock-out mouse; settings: peritoneal injection just before test, one time, amphetamine 4 mg/kg/day, methylphenidate 2 mg/kg/day, 60 minutes, FIGS. 3B and 3C
Method: (§1) In order to observe hyperactivity of mice using the GIT1 knock-out mice of the present invention, an open field test was executed in a novel environment. A GIT1 knock-out mouse and a normal mouse (wild type) as a control, each mouse being aged 2 to 5 months, were prepared. An open space was prepared using a white box which is never exposed to the mice and has a dimension of 40-40-40 cm (width-length-height). After placing each mouse in the center of the open space and video shooting a distance of the mouse for 60 minutes, results thereof including, for example, a total distance, an average movement speed, a central space invasion rate, etc., were assayed through an activity analysis program. For analysis of behavior in the open space, amphetamine (4 mg/kg/day, one time) and methylphenidate (2 mg/kg/day, one time) used as ADHD protection drugs were administered through peritoneal injection just before placing the mouse therein, followed by immediately placing the mouse in the center of the open space.

normal mouse (wild type) = test: Open field test of normal mouse (control); settings: peritoneal injection just before test, one time, amphetamine 4 mg/kg/day, methylphenidate 2 mg/kg/day, 60 minutes
Method: as §1

GIT1 knock-out mouse [2] = test: Novel object recognition test of GIT1 knock-out mouse; settings: peritoneal injection 4 mg/kg/day, 20 minutes before the sample phase, versus saline, FIG. 6C
Method: A novel object recognition test for assessment of object recognition and memory performance using the GIT1 knock-out mouse was performed in the same open space box as used in the open field test. The novel object recognition test included a sample phase and a test phase. During the sample phase, the mouse was allowed to detect the same two objects placed in an open space box for 10 minutes and, by video shooting the sample phase, times of observing both the objects by the mouse were recorded. As a result, it was found in FIG. 6A that a difference in object detection time between the normal mouse and the GIT1 knock-out mouse is not statistically significant. Further, one of the same two objects, for example, was replaced by a novel object not exposed to the mouse and, after 24 hours, a test period was proceeded. Such a test period was 10 minutes and a time of observing two objects by the mouse was measured during the test period. In this regard, if the nose end of the mouse contacts the object or the mouse heads for the object within 2 cm before the same, this was defined as the observation. For observing recovery of the object recognition and/or memory performance, the present inventive mouse was administered with amphetamine or saline through peritoneal injection at a dose of 4 mg/kg/day and placed in an open space box, 20 minutes before the sample phase.

GIT1 knock-out mouse [3] = test: EEG analysis of theta section waveform in the frontal lobe of GIT1 knock-out mouse; settings: after administering amphetamine, compared to a control having saline, FIG. 7C
Method: A process of assaying an abnormal theta section waveform and a power spectrum density in the frontal lobe using the GIT1 knock-out mouse according to the present invention was executed after administering ketamine to a mouse through peritoneal injection at a dose of 150 mg/kg to anesthetize the mouse and fixing the head of the mouse to a stereotaxic instrument. EEG electrodes were inserted into both the right frontal lobe and the left frontal lobe. More particularly, a correct fixing position was set by calculating a correct coordinate having the front side of 2.8 mm and each lateral side of 0.8 mm with reference to the bregma, via the stereotaxic instrument. A grounding electrode was inserted into the occipital lobe. After inserting the electrodes and 1 week recovery period, the mouse was placed in an EEG chamber to measure a brain wave for 1 hour. EEG signals were amplified using a Grass model 7H polygraph (Grass Technologies) and digitalized at a sampling frequency of 2000 Hz using DIGIDATA 1320A (Molecular Devices), followed by acquisition of data using pClamp8.0 program (Axon Instruments) and analysis thereof.

Structure (SMILES)	movement distance of the GIT1 knock-out mouse in open space (hyperactivity) (GIT1 knock-out mouse [1])	movement distance of the normal mouse in open space (normal mouse (wild type))	object recognition ability (novel object recognition) (GIT1 knock-out mouse [2])	abnormal theta waveform in the frontal lobe (EEG) (GIT1 knock-out mouse [3])
CC(N)Cc1ccccc1 (stereo not drawn) [amphetamine]	significant recovery	considerably long distance	can be recovered	favorably recovered
COC(=O)C(c1ccccc1)C1CCCCN1 (stereo not drawn) [methylphenidate]	significant recovery	considerably long distance		
